In PubChem BioAssay (NCI) one finds GI50 and TGI data, which are given here for eleven compounds.

Assay in all cases: NCI-60 cell line screen, 48 h
For test [1], the system named is LOX IMVI melanoma.
Test [2] concerns COLO 205 colon.
The test system of test [3] is PC-3 prostate.
Test [4] relates to HCT-116 colon.
Test [5] concerns HCC-2998 colon.
Test [6] relates to MALME-3M melanoma.
The test system of test [7] is OVCAR-4 ovarian.
Test [8] relates to OVCAR-5 ovarian.
Test [9] concerns NCI-H23 lung.
Test [10] has as its system MDA-MB-231 breast.

The structures appear in SMILES notation. Where “and” joins values, the source holds several entries; their conditions need not be identical. Equal entries are not always repeated.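 Each compound was tested at five concentrations against cells in 96-well plates for 48 hours. GI50 = concentration required for 50% inhibition of growth. At the TGI there is no net growth.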

For the compound `COc1ccc(CNc2nc3cc(N)cc(N)c3nc2-c2ccccc2)cc1`, the GI50 is 13.6 µM in test [1]; 15.5 µM in [2]; 10.3 µM in [3]; 14.4 µM in test [4]; 21.8 µM in test [5]; 10.7 µM in [6]. In addition, the GI50 in test [7] was 8.12 µM; in [8] it was 20.8 µM; in test [9], 16.8 µM; in test [10] it was 2.9 µM. The TGI in test [1] came out at 27.4 µM; in test [2] it was 34.1 µM; in test [3], 27.3 µM; in test [4], 27.5 µM; in test [5], 51.7 µM; in [6], 22.5 µM. Besides, the TGI in test [7] stood at 21.3 µM; in [8], 46.2 µM; in test [9], 34.4 µM; in test [10], 13.8 µM.
For `CC(=O)Oc1cc2c(OC(C)=O)c(-c3c(C)cc4c(C(C)C)c(OC(C)=O)c(OC(C)=O)cc4c3OC(C)=O)c(C)cc2c(C(C)C)c1OC(C)=O`, the GI50 in [1] is 4.4 µM and 5.26 µM and 17.3 µM; in test [2], 9.61 µM and 5.5 µM and 10.1 µM; in test [3], 5.48 µM and 5.87 µM and 9.87 µM; in test [4], 6.22 µM and 6.63 µM and 7.46 µM; in test [5] it was 4.23 µM and 5.12 µM and 18.4 µM; in test [6], 5.49 µM and 5.36 µM and 9.03 µM. Moreover, the GI50 is 5.86 µM and 5.87 µM and 9.81 µM in test [8]; 5.06 µM and 5.46 µM and 8.84 µM in test [9]; 0.67 µM and 1.58 µM and 3.63 µM in test [10]. Also, the TGI was 8.52 µM and 11.3 µM and 32 µM in test [1]; 13 µM and 21.3 µM in [2]; 10.9 µM and 12.1 µM and 23.2 µM in test [3]; 14.3 µM and 15.9 µM and 14.4 µM in [4]; 8.3 µM and 9.51 µM and 34.3 µM in test [5]; 13.8 µM and 13.7 µM and 23.7 µM in test [6]. Moreover, the TGI in test [7] was 32 µM and > 69.6 µM and > 84.2 µM; in test [8], 13.6 µM and 12.9 µM and 25 µM; in [9], 9.63 µM and 9.93 µM and 19.1 µM; in test [10], 2.08 µM and 7.6 µM and 12.4 µM.
Take `COc1cc(O)c2c(c1)C(=O)c1cc3c(c(O)c1C2=O)C(OC1OC(C)C(O)C(O)C1OC)C(OC)C(C)(O)C3=O` (centres undefined): the GI50 was 1.67 µM in test [1]; 1.31 µM in [2]; 2.57 µM in test [3]; 1.63 µM and 0.665 µM in test [4]; 2.22 µM in test [5]; 1.7 µM in [7]. Besides, the GI50 was 2.18 µM in test [8], 2.36 µM in test [9] and 2.66 µM in [10]. For the same compound, the TGI in [1] is 4.91 µM and 7.1 µM; in test [2], 5.2 µM and 3.25 µM; in [3] it was 12.3 µM; in test [4] it was 6.56 µM and 5.88 µM; in test [5], 5.14 µM and 12.4 µM; in test [6], 2.54 µM and 2.65 µM. Also, the TGI in test [7] is 8.04 µM and 2.64 µM; in test [8], 8.48 µM and 9.24 µM; in [9], 6.03 µM and 8.08 µM; in [10] it was 9.2 µM.
Consider `CC/C(=C(/c1ccc(O)cc1)c1ccc(OCCN2CCCCC2)cc1)c1ccc(OC)cc1`, for which the GI50 in test [1] was 1.63 µM; in [2], 1.49 µM; in test [3], 1.41 µM; in test [4] it was 1.15 µM; in test [5], 2.9 µM; in test [6], 1.42 µM. In addition, the GI50 was 1.88 µM in test [7], 3.25 µM in [8], 10.1 µM in [9] and 1.61 µM in test [10]. The TGI in [1] was 3.27 µM; in test [2] it was 3.12 µM; in [3], 3.34 µM; in test [4], 2.51 µM; in test [5], 9.13 µM; in [6], 2.98 µM. The TGI came out at 5.99 µM in test [7], 14.8 µM in test [8], 23.4 µM in test [9] and 3.84 µM in test [10].
On to `CCOC(=O)C(C)(C)C(O)C(C)C` (centres undefined), for which the TGI in test [1], in test [2], in [3], in [4], in [5] and in test [6] was more than 100 µM in each case. Also, the TGI in test [7], in test [8], in [9] and in test [10] was more than 100 µM in each case.
Take `O=S(=O)(Nc1cc(Cl)ccc1Cl)c1ccc(-c2cnc(C3CC3)o2)cc1`: the GI50 was 3.3 µM in test [1]; 1.84 µM in [2]; 0.563 µM in [3]; 0.453 µM in test [4]; 3.03 µM in test [5]; 10.8 µM in test [6]. Further, the GI50 in test [7] was 11.8 µM; in [8] it was 3.39 µM; in test [9] it was 2.84 µM; in test [10], 4.31 µM. Also, the TGI was more than 100 µM in test [1]; 13.4 µM in test [2]; 17 µM in [3]; 15 µM in [4]; 25.2 µM in test [5]; 57.6 µM in test [6]. Further, the TGI in test [7] is more than 100 µM; in test [8], more than 100 µM; in test [9] it was 67.2 µM; in test [10], 43 µM.
As for `CCN(CC)CCCC(C)N=c1cc(Nc2cc(=NC(C)CCCN(CC)CC)c3cc(OC)ccc3o2)oc2ccc(OC)cc12` (centres undefined), the GI50 is 1.02 µM in test [1]; 0.632 µM in [2]; 1.49 µM in [3]; 0.683 µM in test [4]; 1.85 µM in test [5]; 0.937 µM in test [6]. Moreover, the GI50 in test [7] is 0.723 µM; in test [8], 0.89 µM; in test [9], 3.18 µM; in test [10] it was 0.666 µM. Further, the TGI in [1] came to 2.29 µM; in [2], 1.36 µM; in test [3], 6.8 µM; in test [4] it was 1.81 µM; in [5], 7.14 µM; in test [6], 1.74 µM. Further, the TGI in test [7] is 1.71 µM; in test [8], 2.38 µM; in test [9], 12.7 µM; in [10] it was 1.88 µM.
For `COc1cccc2c1c(C1=C(c3cn(C)c4ccccc34)C(=O)NC1=O)cn2C`, the GI50 in test [1], in test [2], in [3], in test [4], in test [5] and in [6] was more than 25 µM in each case. Also, the GI50 in test [7], in test [8], in [9] and in test [10] was more than 25 µM throughout. Further, the TGI in [1], in test [2], in test [3], in test [4], in [5] and in test [6] was more than 25 µM each time. The TGI in test [7], in [8], in test [9] and in [10] was more than 25 µM in each case.
Turning to `CN(C)CCOC(c1ccccc1)c1ccccc1`, the TGI in test [1] is more than 100 µM; in test [2], 28.3 µM and > 100 µM; in [3], 44.4 µM and > 100 µM; in [4], 48.7 µM and > 100 µM; in test [5], more than 100 µM; in test [6], 46 µM and > 100 µM. Further, the TGI is more than 100 µM in [7]; 52.4 µM and > 100 µM in [8]; 53.4 µM and > 100 µM in [9]; 45.2 µM and > 100 µM in test [10]. Besides, the GI50 was 14 µM in [2]; 32.1 µM in [4]; 25.2 µM in [6]; 36.7 µM in test [8]; 38 µM in test [9]; 15.6 µM in test [10].
Turning to `CCCCN(CCCC)CCCn1c(=O)c2c3ccccc3n(C)c2n2nnc(-c3ccccc3)c12`, the GI50 was 28.4 µM in test [1]; 5.01 µM in [2]; 18.2 µM in test [3]; 18.4 µM in [4]; 20.3 µM in [5]; 28.4 µM in test [6]. The GI50 in test [7] is 17.6 µM; in test [8] it was 22.3 µM; in test [9], 13 µM; in [10], 36.6 µM. Moreover, the TGI was more than 100 µM in test [1]; 62.9 µM in [2]; 47.4 µM in test [3]; more than 100 µM in test [4]; more than 100 µM in test [5]; 90 µM in [6]. The TGI was 83.9 µM in test [7], more than 100 µM in [8], 62.6 µM in test [9] and more than 100 µM in test [10].
`O=C(NCc1ccncc1)C12CC3CC(C1)CC(c1ccc(Cl)cc1)(C3)C2`: the GI50 in test [1] was 15 µM; in [2], 12.7 µM; in test [3], 8.86 µM; in test [4], 9.4 µM; in [5] it was 14.3 µM; in [6], 13.3 µM. Also, the GI50 in [7] was 10.9 µM; in [8], 14 µM; in test [9] it was 14.4 µM; in test [10], 12 µM. For the same compound, the TGI came to 30.1 µM in test [1]; 27.1 µM in [2]; 23.1 µM in test [3]; 22.3 µM in test [4]; 29.4 µM in test [5]; 27.4 µM in test [6]. The TGI came out at 32.8 µM in test [7], 28.7 µM in test [8], 32.7 µM in test [9] and 26.2 µM in test [10].
